PMC7660650, “Chemical Starting Matter for HNF4α Ligand Discovery and Chemogenomics” (International Journal of Molecular Sciences, 2020)
Where “and” joins values, the source holds several entries; their conditions need not be identical. Equal values may be shown once. Entries after “also recorded” stand apart in the source; their conditions may differ. Read-outs that look alike come from different tables or passages of the source.

Key:
[1] = tested on: HNF4α-regulated gene fructose-1,6-bisphosphatase 1 (FBP1); assay: FBP1 mRNA expression in HepG2 cells by qRT-PCR; type: cell-based, human; conditions: 8 h, vs 0.1% DMSO
[2] = target: T1, Gal4-HNF4α (human HNF4α LBD) (Homo sapiens, UniProt P41235); assay: Hybrid Gal4-HNF4α reporter gene assay in transiently transfected HEK293T cells; type: cell-based; conditions: for Follow-up HNF4α (fold activation of reporter activity) / EC50: at least four repeats; for HNF4α Ligand Type: Gal4-HNF4α assay; for Primary Screen (Fold Act., 50 µM): mean of two biologically independent repeats, vs. 0.2% DMSO; for HNF4a-screening_activity_(mean_of_n=2): Table S1, primary screening; for EC50: read-out: Validated HNF4α Modulation EC50
T1 construct: uniprot entry: P41235-1, residues 142-377; expressed in transfected cells; host or cells: HEK293T
T1 sequence (P41235 142-377): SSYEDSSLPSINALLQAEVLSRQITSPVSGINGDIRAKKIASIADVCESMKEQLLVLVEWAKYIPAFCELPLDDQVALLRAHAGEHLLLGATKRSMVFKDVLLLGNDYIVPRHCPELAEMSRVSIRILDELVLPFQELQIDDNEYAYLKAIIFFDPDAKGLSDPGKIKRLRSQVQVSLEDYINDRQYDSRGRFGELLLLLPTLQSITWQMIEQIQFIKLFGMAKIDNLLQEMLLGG

Gal4–VP16 = assay: Gal4-VP16 control experiment (reporter gene assay, HEK293T cells); type: cell-based; conditions: mean ± SD
Experimental: The frame and sequence of the fusion plasmid were verified by sequencing. pFR-Luc (Stratagene) was used as reporter plasmid and pRL-SV40 (Promega, Madison, WI, USA) served for normalization of transfection efficiency and cell growth. The Gal4-VP16 [25] expressed from plasmid pECE-SV40-Gal4-VP16 [26] […] Assay Procedure: HEK293T cells were grown in Dulbecco’s Modified Eagle Medium (DMEM) high glucose, supplemented with 10% Fetal Bovine Serum (FCS), sodium pyruvate (1 mM), penicillin (100 U/mL), and streptomycin (100 μg/mL) at 37 °C and 5% CO2. The day before transfection, HEK293T cells were seeded in 96-well plates (3.0·10^4 cells/well). Before transfection, the medium was changed to Opti-MEM without supplements. Transient transfection was carried out using Lipofectamine LTX reagent (Invitrogen, Carlsbad, CA, USA) according to the manufacturer’s protocol with pFR-Luc (Stratagene), pRL-SV40 (Promega), and the pFA-CMV-hHNF4α-LBD clone or pECE-SV40-Gal4-VP16 for control experiments. Five hours after transfection, the medium was changed to Opti-MEM supplemented with penicillin (100 U/mL), streptomycin (100 μg/mL), now additionally containing 0.1% DMSO (0.2% in the primary screen) and the respective test compounds or 0.1% DMSO (0.2% in the primary screen) alone as the untreated control. In the primary screening, the core set of the Prestwick Drug Fragment Library (Prestwick Chemical, Illkirch, France) was tested at 50 µM concentration in two biologically independent repeats. In the follow-up and dose-response profiling, each concentration was tested in duplicates in at least three biologically independent repeats. Following overnight (12−14 h) incubation with the test compounds, cells were assayed for luciferase activity using Dual-Glo™ luciferase assay system (Promega) according to the manufacturer’s protocol. Luminescence was measured with a Tecan Spark 10M luminometer (Tecan Group Ltd., Männedorf, Switzerland). […] Fold activation was obtained by dividing the mean RLU of test compounds at a respective concentration by the mean RLU of untreated control.

[3] = target: T2, recombinant HNF4α LBD protein (Homo sapiens, UniProt P41235); assay: Isothermal titration calorimetry (ITC); type: binding; conditions: for Kd: 25 °C, protein 10–20 µM titrated with ligand 50–200 µM, read-out: HNF4α LBD Binding (Kd); for n (ITC binding model): Figure 4
T2 construct: The LDB domain of HNF4α (aa. 148–377) subcloned into pNIC28-Bsa4; His6 (N); made in house; host or cells: E. coli Rosetta
T2 sequence (P41235 148-377): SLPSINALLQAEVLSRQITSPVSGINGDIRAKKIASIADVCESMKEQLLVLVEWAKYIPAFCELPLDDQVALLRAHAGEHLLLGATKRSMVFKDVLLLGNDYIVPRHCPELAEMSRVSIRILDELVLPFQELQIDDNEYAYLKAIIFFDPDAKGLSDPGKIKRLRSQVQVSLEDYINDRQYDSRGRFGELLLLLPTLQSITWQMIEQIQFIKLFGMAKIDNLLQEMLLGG
Experimental: The recombinant protein harboring an N-terminal His6 tag was initially purified by Ni^2+-affinity chromatography. Size exclusion chromatography was performed using Superdex S75 column (GE Healthcare, Chicago, IL, USA.), and the pure protein was stored in a buffer containing 20 mM 4-(2-hydroxyethyl)-1-piperazineethanesulfonic acid (HEPES) pH 7.5, 200 mM NaCl, 0.5 mM tris(2-carboxyethyl)phosphine (TCEP), and 5% w/v glycerol.
Isothermal titration calorimetry was performed on an Affinity ITC (TA Instruments, New Castle, DE, USA). The instrument was equilibrated to 25 °C and the stirring rate was set to 75 rpm. HNF4α buffer (20 mM HEPES pH 7.5, 200 mM NaCl, 0.5 mM TCEP, 5% w/v glycerol) with up to 1% DMSO (final concentration) was used for ITC. The recombinant HNF4α LBD protein (10–20 µM, 172 µL) was titrated with fragments (4, 6, 7, 9, 10; 50–200 µM; dissolved in the same buffer). A total of 20-30 injections with a volume of 2.5–4 µL and with an interval of 200–300 s were performed. As a control experiment, HNF4α protein was titrated with buffer, and the buffer was titrated with test compound to detect dissolution artifacts with otherwise identical experimental parameters. Data analysis was performed with NanoAnalyze^TM Software (TA Instruments, New Castle, DE, USA.) using an independent binding model.

[4] = target: the molecule itself; assay: ITC; HNF4α LBD protein alone; dimer dissociation upon dilution (seen when inverse ITC experiments were tried); dimer to monomers
[5] = significance of Gal4-HNF4α follow-up vs Gal4-VP16 control at the same concentration

## O=C(O)c1cc(-c2ccccc2)ccc1O [compound 9, OC(=O)c1cc(ccc1O)-c1ccccc1]
[1]; HepG2, 50 µM
  FBP1 mRNA expression: decreased FBP1 mRNA levels; also recorded: robustly decreased FBP1 expression

## OC(c1ccc(F)cc1)c1ccc(F)cc1 [compound 10]
[2]; 50 µM, mean ± SD
  Follow-up HNF4α (fold activation of reporter activity): 0.75 ± 0.05 (50 µM) fold activation
[2]
  HNF4α Ligand Type: inverse HNF4α agonism; also recorded: Inverse agonist
[2]; dose-response, inverse agonism, mean ± SD, read-out: Validated HNF4α Modulation IC50
  IC50: 24 µM
[2]; [5]
  HNF4α vs. VP16 (p, t-test): p = 0.0057 (**)
Gal4–VP16; 50 µM
  VP16 Control (fold activation of reporter activity): 1.1 ± 0.2 (50 µM) fold activation
[3]
  Kd: ~1.7 µM and 1.7 µM
  n (ITC binding model): 1.1
[1]; HepG2, 50 µM
  FBP1 mRNA expression: decreased FBP1 mRNA levels; also recorded: robustly decreased FBP1 expression

## CC(C)CC(N)C1(c2ccc(Cl)cc2)CCC1 (stereo not shown) [compound 5, CC(C)CC(N)C1(CCC1)c1ccc(Cl)cc1]
[2]; 50 µM
  Primary Screen (Fold Act., 50 µM): 1.80 fold activation
[2]; 50 µM, mean ± SD
  Follow-up HNF4α (fold activation of reporter activity): tendency for HNF4α modulation
[2]; 100 µM, mean ± SD
  Follow-up HNF4α (fold activation of reporter activity): 2.5 ± 0.2 (100 µM) fold activation
[2]
  HNF4α Ligand Type: Agonist
[2]; 50 µM, listed as Prestw-Frag-1566
  HNF4a-screening_activity_(mean_of_n=2): 0.9114 and 1.797
[2]; dose-response, mean ± SD
  EC50: > 100 µM
[2]; [5]
  HNF4α vs. VP16 (p, t-test): p < 0.0001 (***)
Gal4–VP16; 100 µM
  VP16 Control (fold activation of reporter activity): 1.1 ± 0.1 (100 µM) fold activation

## Nc1ncn([C@@H]2O[C@H](CO)[C@@H](O)[C@H]2O)c(=O)n1 [compound 6, Nc1ncn([C@@H]2O[C@H](CO)[C@@H](O)[C@H]2O)c(=O)n1]
[2]
  HNF4α vs. VP16 (p, t-test): p = 0.0034 (**)
[1]; HepG2, 10 µM
  FBP1 mRNA expression: significantly promoted FBP1 expression

## Cc1nc(-c2ccccc2)c(-c2ccccc2)o1 [compound 8]
[2]; 50 µM, mean ± SD
  Follow-up HNF4α (fold activation of reporter activity): 1.1 ± 0.2 (50 µM) fold activation
Gal4–VP16; 50 µM
  VP16 Control (fold activation of reporter activity): 0.92 ± 0.07 (50 µM) fold activation

## Cc1cc(C(C)(C)CC(C)(C)C)ccc1O [compound 1, Cc1cc(ccc1O)C(C)(C)CC(C)(C)C]
[2]; 50 µM
  Primary Screen (Fold Act., 50 µM): 2.48 fold activation
[2]; 50 µM, mean ± SD
  Follow-up HNF4α (fold activation of reporter activity): 1.1 ± 0.2 (50 µM) fold activation
[2]; 50 µM, listed as Prestw-Frag-1016
  HNF4a-screening_activity_(mean_of_n=2): 2.483 and 1.264
Gal4–VP16; 50 µM
  VP16 Control (fold activation of reporter activity): 0.80 ± 0.07 (50 µM) fold activation

## COc1ccc2c(c1)OCC2=O [compound 2, COc1ccc2C(=O)COc2c1]
[2]; 50 µM
  Primary Screen (Fold Act., 50 µM): 1.55 fold activation
[2]; 50 µM, mean ± SD
  Follow-up HNF4α (fold activation of reporter activity): 1.3 ± 0.2 (50 µM) fold activation
[2]; 50 µM, listed as Prestw-Frag-1362
  HNF4a-screening_activity_(mean_of_n=2): 0.8621 and 1.554
Gal4–VP16; 50 µM
  VP16 Control (fold activation of reporter activity): 1.3 ± 0.3 (50 µM) fold activation

## O=C(Nc1ccccc1Cl)c1ccccc1O [compound 4, Oc1ccccc1C(=O)Nc1ccccc1Cl]
[1]; HepG2, 50 µM
  FBP1 mRNA expression: promoted FBP1 expression; also recorded: tendency to enhanced FBP1 mRNA levels

## Nc1ncns1 [compound 7, Nc1ncns1]
[2]; 50 µM
  Primary Screen (Fold Act., 50 µM): 2.36 fold activation
  HNF4a-screening_activity_(mean_of_n=2): 2.362
[2]; 50 µM, mean ± SD
  Follow-up HNF4α (fold activation of reporter activity): 3.0 ± 0.3 (50 µM) fold activation
[2]
  HNF4α Ligand Type: Agonist
[2]; dose-response, mean ± SD
  EC50: 31 µM
[2]; maximum fold increase in reporter activity relative to 0.1% DMSO
  Validated HNF4α Modulation maximum fold act.: 3.8 fold act. and 3.8 ± 0.6 fold act.
[2]; [5]
  HNF4α vs. VP16 (p, t-test): p < 0.0001 (***)
Gal4–VP16; 50 µM
  VP16 Control (fold activation of reporter activity): 1.4 ± 0.1 (50 µM) fold activation
[3]
  Kd: ~7 µM and 7 µM
  n (ITC binding model): 0.9
[1]; HepG2, 50 µM
  FBP1 mRNA expression: promoted FBP1 expression; also recorded: tendency to enhanced FBP1 mRNA levels

## Cc1cc(=O)n(-c2ccc(C)c(C)c2)[nH]1 [compound 11, Cc1cc(=O)n([nH]1)-c1ccc(C)c(C)c1]
[2]; 50 µM
  Primary Screen (Fold Act., 50 µM): 0.32 fold activation
  HNF4a-screening_activity_(mean_of_n=2): 0.3184
[2]; 50 µM, mean ± SD
  Follow-up HNF4α (fold activation of reporter activity): tendency for HNF4α modulation
[2]; 100 µM, mean ± SD
  Follow-up HNF4α (fold activation of reporter activity): 0.21 ± 0.03 (100 µM) fold activation
Gal4–VP16; 100 µM
  VP16 Control (fold activation of reporter activity): 0.21 ± 0.02 (100 µM) fold activation

## Nc1nc2cc(C(=O)c3ccccc3)ccc2[nH]1 [compound 3]
[2]; 50 µM
  Primary Screen (Fold Act., 50 µM): 2.09 fold activation
[2]; 50 µM, mean ± SD
  Follow-up HNF4α (fold activation of reporter activity): 1.5 ± 0.2 (50 µM) fold activation
Gal4–VP16; 50 µM
  VP16 Control (fold activation of reporter activity): 1.7 ± 0.3 (50 µM) fold activation

## OCC(O)COc1ccccc1 (stereo not shown) [Prestw-Frag-1337, OCC(O)COc1ccccc1]
[2]; 50 µM
  HNF4a-screening_activity_(mean_of_n=2): 0.9566

## CNS(=O)(=O)Cc1ccc2[nH]cc(CCN)c2c1 [Prestw-Frag-3017, CNS(=O)(=O)Cc1ccc2[nH]cc(CCN)c2c1]
[2]; 50 µM
  HNF4a-screening_activity_(mean_of_n=2): 0.7522

## COc1ccccc1OCCO [Prestw-Frag-1338, COc1ccccc1OCCO]
[2]; 50 µM
  HNF4a-screening_activity_(mean_of_n=2): 0.8769 and 0.9665

## CC(C)(C)NCC(O)c1ccccc1 (stereo not shown) [Prestw-Frag-1929, CC(C)(C)NCC(O)c1ccccc1]
[2]; 50 µM
  HNF4a-screening_activity_(mean_of_n=2): 1.143

## CNC(=O)c1c(OC)ccc(Br)c1OC [Prestw-Frag-3704, CNC(=O)c1c(OC)ccc(Br)c1OC]
[2]; 50 µM
  HNF4a-screening_activity_(mean_of_n=2): 1.072

## Cc1ccc(N)c(C#N)c1 [Prestw-Frag-3060, Cc1ccc(N)c(c1)C#N]
[2]; 50 µM
  HNF4a-screening_activity_(mean_of_n=2): 0.8715

## c1ccc(CC2NCCc3ccccc32)cc1 (stereo not shown) [Prestw-Frag-1444, C(C1NCCc2ccccc12)c1ccccc1]
[2]; 50 µM
  HNF4a-screening_activity_(mean_of_n=2): 1.349

## Oc1ccccc1N1CCNCC1 [Prestw-Frag-3738, Oc1ccccc1N1CCNCC1]
[2]; 50 µM
  HNF4a-screening_activity_(mean_of_n=2): 0.9708

B1: recombinant HNF4α LBD protein (hepatocyte nuclear factor 4α ligand-binding domain, aa. 148–377) (domain or fragment, human, UniProt P41235-1 148-377, looked up)
chain: T2 sequence (P41235 148-377)
notes: 148-377, subcloned into pNIC28-Bsa4; UniProt entry and species are printed for the Gal4-HNF4α reporter construct, not expressly for the E. coli construct; also called NR2A1
[4]
  binding result: binds
